# In patent publication US20180169135A1, “METHOD FOR PREVENTING TRANSPLANT FAILURE IN A HOST” (Universiteit Maastricht, priority 2015, published 2018):
# Biological target: Histon H3 (Homo sapiens, UniProt P68431)
substance,measurement,value
heparin [UFH],neutralization of the cytotoxic activity of Histon H3,neutralize the cytotoxic activity of Histon H3
